In ChEMBL document CHEMBL4052801, “Design, synthesis and anticancer activity of N-(1-(4-(dibenzo[b,f][1,4]thiazepin-11-yl)piperazin-1-yl)-1-oxo-3-phenylpropan-2-yl derivatives” (Bioorg Med Chem Lett, 2017):

What was measured:
COLO 205 = assay: Cytotoxicity against human COLO205 cells after 24 hrs by MTT assay; assay type: functional, cell-based; conditions: COLO 205, 24 h
MDA-MB-231 = assay: Cytotoxicity against human MDA-MB-231 cells after 24 hrs by MTT assay; assay type: functional, cell-based; conditions: MDA-MB-231, 24 h
K562 = assay: Cytotoxicity against human K562 cells after 24 hrs by MTT assay; assay type: functional, cell-based; conditions: K562, 24 h
[1] = target: T1, NAD-dependent protein deacetylase sirtuin-1 (Homo sapiens) (UniProt Q96EB6); assay: Inhibition of human Sirt1 at 10 uM using fluorophore-labelled peptide as substrate measured after 15 mins by fluorescence assay relative to control
T1 sequence (whole entry): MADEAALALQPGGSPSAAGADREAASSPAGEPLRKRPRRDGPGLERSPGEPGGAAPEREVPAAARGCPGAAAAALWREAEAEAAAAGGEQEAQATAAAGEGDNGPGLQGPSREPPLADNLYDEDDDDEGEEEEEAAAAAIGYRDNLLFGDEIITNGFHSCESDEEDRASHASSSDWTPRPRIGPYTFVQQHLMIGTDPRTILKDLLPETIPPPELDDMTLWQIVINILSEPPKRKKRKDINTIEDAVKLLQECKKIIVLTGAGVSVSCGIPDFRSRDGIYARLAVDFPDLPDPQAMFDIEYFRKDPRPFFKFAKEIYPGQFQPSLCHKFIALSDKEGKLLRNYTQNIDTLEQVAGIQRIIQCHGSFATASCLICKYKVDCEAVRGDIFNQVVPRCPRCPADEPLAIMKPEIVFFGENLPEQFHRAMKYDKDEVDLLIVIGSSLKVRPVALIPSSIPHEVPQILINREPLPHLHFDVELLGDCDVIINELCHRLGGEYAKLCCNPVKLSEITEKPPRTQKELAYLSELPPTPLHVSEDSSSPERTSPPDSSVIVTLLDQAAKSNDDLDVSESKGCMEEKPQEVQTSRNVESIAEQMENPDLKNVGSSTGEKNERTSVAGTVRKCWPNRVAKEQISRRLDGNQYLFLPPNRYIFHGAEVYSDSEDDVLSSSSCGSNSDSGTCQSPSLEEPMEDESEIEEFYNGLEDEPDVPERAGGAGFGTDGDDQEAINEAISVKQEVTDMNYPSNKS

Row | Structure (SMILES) | IC50 (COLO 205) | IC50 (MDA-MB-231) | IC50 (K562) | inhibition [1]
1 | N#Cc1ccc(C(=O)NC(Cc2ccccc2)C(=O)N2CCN(C3=Nc4ccccc4Sc4ccccc43)CC2)cc1 (configuration not stated) | 29 µM | 61 µM | 24 µM | 
2 | O=C(Cc1ccc2c(c1)OCO2)NC(Cc1ccccc1)C(=O)N1CCN(C2=Nc3ccccc3Sc3ccccc32)CC1 (configuration not stated) | 24 µM | 52 µM | 35 µM | 
3 | CC(=O)CCCC(=O)NC(Cc1ccccc1)C(=O)N1CCN(C2=Nc3ccccc3Sc3ccccc32)CC1 (configuration not stated) | 33 µM | 52 µM | 32 µM | 
4 | O=C(NC(Cc1ccccc1)C(=O)N1CCN(C2=Nc3ccccc3Sc3ccccc32)CC1)c1ccc(OC(F)F)cc1 (configuration not stated) | 10 µM | 39 µM | 12 µM | 71%
5 | Cc1ccc(C(=O)NC(Cc2ccccc2)C(=O)N2CCN(C3=Nc4ccccc4Sc4ccccc43)CC2)c(C)c1 (configuration not stated) | 40 µM | 37 µM | 35 µM | 
6 | Cc1ccc(C)c(C(=O)NC(Cc2ccccc2)C(=O)N2CCN(C3=Nc4ccccc4Sc4ccccc43)CC2)c1 (configuration not stated) | 12 µM | 34 µM | 16 µM | 54%
7 | CCc1ccc(C(=O)NC(Cc2ccccc2)C(=O)N2CCN(C3=Nc4ccccc4Sc4ccccc43)CC2)cc1 (configuration not stated) | 25 µM | 44 µM | 21 µM | 
8 | CCN(CC)CCNC(=O)c1c(C)[nH]c(/C=C2\C(=O)Nc3ccc(F)cc32)c1C [SUNITINIB] | 8 µM | 32 µM | 14 µM | 
9 | O=C(CCc1cccc(Cl)c1)NC(Cc1ccccc1)C(=O)N1CCN(C2=Nc3ccccc3Sc3ccccc32)CC1 (configuration not stated) | 16 µM | 59 µM | 27 µM | 
10 | O=C(NC(Cc1ccccc1)C(=O)N1CCN(C2=Nc3ccccc3Sc3ccccc32)CC1)c1ccoc1 (configuration not stated) | 14 µM | 37 µM | 17 µM | 51%
11 | O=C(NC(Cc1ccccc1)C(=O)N1CCN(C2=Nc3ccccc3Sc3ccccc32)CC1)c1cnccn1 (configuration not stated) | 15 µM | 38 µM | 16 µM | 62%
12 | O=C(NC(Cc1ccccc1)C(=O)N1CCN(C2=Nc3ccccc3Sc3ccccc32)CC1)c1ccc(I)cc1 (configuration not stated) | 28 µM | 55 µM | 26 µM | 
13 | Cc1ccc(C(=O)NC(Cc2ccccc2)C(=O)N2CCN(C3=Nc4ccccc4Sc4ccccc43)CC2)cc1I (configuration not stated) | 45 µM | 59 µM | 36 µM | 
14 | COC(=O)CCCC(=O)NC(Cc1ccccc1)C(=O)N1CCN(C2=Nc3ccccc3Sc3ccccc32)CC1 (configuration not stated) | 28 µM | 64 µM | 19 µM | 
15 | CCOC(=O)CCCC(=O)NC(Cc1ccccc1)C(=O)N1CCN(C2=Nc3ccccc3Sc3ccccc32)CC1 (configuration not stated) | 36 µM | 48 µM | 20 µM | 
16 | Cc1ccc(Br)cc1C(=O)NC(Cc1ccccc1)C(=O)N1CCN(C2=Nc3ccccc3Sc3ccccc32)CC1 (configuration not stated) | 16 µM | 49 µM | 27 µM | 
17 | Cc1ccc(C(=O)NC(Cc2ccccc2)C(=O)N2CCN(C3=Nc4ccccc4Sc4ccccc43)CC2)cn1 (configuration not stated) | 34 µM | 54 µM | 39 µM | 
18 | CS(=O)(=O)c1ccc(CC(=O)NC(Cc2ccccc2)C(=O)N2CCN(C3=Nc4ccccc4Sc4ccccc43)CC2)cc1 (configuration not stated) | 32 µM | 56 µM | 28 µM | 
19 | CC(C)(C(=O)NC(Cc1ccccc1)C(=O)N1CCN(C2=Nc3ccccc3Sc3ccccc32)CC1)c1ccc(C(=O)C2CC2)cc1 (configuration not stated) | 17 µM | 34 µM | 14 µM | 44%
